From article PMC6934184, “Selective DNA-PKcs inhibition extends the therapeutic index of localized radiotherapy and chemotherapy” (The Journal of Clinical Investigation, 2019)

Molecular target: T1, HIPK4 (Homo sapiens, UniProt Q8NE63)
T1 construct: purchased Thermo Fisher Scientific (Life Technologies) SelectScreen
Assay: SelectScreen Z'LYTE
Assay type: biochemical
Summary of the method: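 SelectScreen broad panel; activity (Z'LYTE, Adapta) plus binding formats. ATP: Km app for CSF1R Z'LYTE; 10 for CAMK1 Adapta. Readout = % per kinase.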

T1 sequence (Q8NE63 whole entry): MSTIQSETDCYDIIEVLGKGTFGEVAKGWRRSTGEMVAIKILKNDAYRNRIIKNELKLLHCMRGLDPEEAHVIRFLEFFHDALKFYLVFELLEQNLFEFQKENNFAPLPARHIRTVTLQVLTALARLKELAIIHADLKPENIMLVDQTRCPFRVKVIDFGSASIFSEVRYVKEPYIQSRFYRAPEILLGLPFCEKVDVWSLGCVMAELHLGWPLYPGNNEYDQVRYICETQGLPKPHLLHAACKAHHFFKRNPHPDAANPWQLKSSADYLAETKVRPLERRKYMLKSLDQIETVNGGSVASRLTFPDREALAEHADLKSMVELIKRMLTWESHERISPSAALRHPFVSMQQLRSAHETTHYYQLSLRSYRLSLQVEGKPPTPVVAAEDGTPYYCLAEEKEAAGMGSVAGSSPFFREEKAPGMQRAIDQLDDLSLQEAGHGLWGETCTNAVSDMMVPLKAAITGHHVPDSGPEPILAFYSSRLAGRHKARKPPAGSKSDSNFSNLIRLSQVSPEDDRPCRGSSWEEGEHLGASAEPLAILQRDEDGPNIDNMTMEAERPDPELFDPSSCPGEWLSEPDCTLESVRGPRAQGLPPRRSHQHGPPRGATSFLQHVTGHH

**Q.** Which inhibition at 1 µM does the source give for `CN(C(=O)CN1CCOCC1)c1ccc2sc3c(-c4cccc5c(=O)cc(N6CC7CCC(C6)O7)oc45)cccc3c2c1` [NU5455] here?
**A.** Its inhibition at 1 µM is 0.9%.
